Entries after “also recorded” stand apart in the source; their conditions may differ.
Legend:
Format in all cases: in vivo
Drosophila larvae = assay: Two-way choice method, attraction of Drosophila larvae; settings: FIG. 2A/2B; for concentration dependence of attraction on Drosophila larvae: content gradients 10^−5 g to 10^−11 g
Method: Two-way choice method was used to detect the attraction of Galleria mellonella muscardine cadavers to Drosophila healthy larvae, with the device shown in FIG. 1A. New freezing-killed Galleria mellonella larvae were kept at a room temperature for 20 min(control) and one of the resulting Galleria mellonella muscardine cadaver was placed on both sides of a 9 cm petri dish (containing 2% water agar), and then 20 healthy 3-instar Canton-S Drosophila larvae were placed in the middle part of the petri dish. After 10 min, photographing was conducted to record the selection of Drosophila larvae, and a Response index was calculated [the Response index=(the number of Drosophila larvae selecting Galleria mellonella muscardine cadaver−the number of Drosophila larvae selecting control Galleria mellonella larvae)/the total number of Drosophila larvae (20)]. The experiment was repeated 6 times.
(§1) The muscardine cadaver was replaced by circular filter paper with a 5 mm diameter (containing 10 μl of different concentrations solutions of longifolene or sativene), and a control was a filter paper containing 10 μl of n-hexane solvent. Similarly, the method for detecting the attraction of muscardine cadavers to Galleria mellonella larvae and mosquitoes adults was also used to analyze the attraction of longifolene and sativene to these two kinds of insects. […]
(§2) According to the above device, the attraction of transgenic strain Mr-Tps and WT strain grown on PDA and on fermentation medium to mosquitoes was compared. The mycelia of transgenic strain Mr-Tps and WT strain grown on PDA and on fermentation medium for 14 d and with a fresh weight of 0.3 g were placed on both sides of the device, respectively, and a preference percentage was calculated after a period of treatment, where the preference percentage=the number of insects selecting mycelia of transgenic strain and WT strain/the total number of insects.

[1] = test system: Galleria mellonella larvae; assay: Improved Two-way choice method, attraction of Galleria mellonella larvae; settings: cotton balls with 100 μl solution vs n-hexane control, FIG. 3
From the text: An improved Two-way choice method was used to detect the attraction of Galleria mellonella muscardine cadavers to Galleria mellonella healthy larvae, with the device shown in FIG. 1B. Three freeze-killed Galleria mellonella larvae (control) and three the resulting Galleria mellonella muscardine cadavers were placed in 9 cm petri dishes, and the petri dishes were placed diagonally in the device; 40 healthy Galleria mellonella larvae were released at the center point of the device, and placed at room temperature in dark. The selection of healthy Galleria mellonella larvae was recorded after 1 h. A Response index was calculated [the Response index=the number of Galleria mellonella larvae selecting Galleria mellonella muscardine cadavers−the number of Galleria mellonella larvae selecting freeze-killed Galleria mellonella larvae)/the total number of Galleria mellonella larvae]. The experiment was repeated 6 times.
as §1

Aedes albopictus adults = assay: Two-way choice method, attraction of adult mosquitoes; settings: for content with the strongest attraction on mosquitoes: content gradients 10^−5 g to 10^−9 g on cotton balls vs n-hexane control, FIG. 2C/2D
Method: The detection on attraction of muscardine cadavers to mosquito (Aedes albopictus) adults was conducted according to a relevant literature (Robinson Ailic, Busula Annette O, Voets Mirjam A, Beshir Khalid B, Caulfield John C. Powers Stephen J, Verhulst Niels O, Winskill Peter, Muwanguzi Julian, Birkett Michael A, Smallegange Renate C, Masiga Daniel K, Mukabana W Richard, Sauerwein Robert W, Sutherland Colin J, Bousema Teun, Pickett John A, Takken Willem, Logan James G, de Boer Jetske G. Plasmodium-associated changes in human odor attract mosquitoes. Proc Natl Acad Sci USA 2018; 115: 4215), and the device used was shown in FIG. 1D. One of freeze-killed Galleria mellonella larvae (control) and one of the resulting Galleria mellonella muscardine cadaver were placed in a 3.5 cm ampoule, and placed in cylinders on both sides of the device. 10 female mosquitoes without blood meal 3 d to 5 d after eclosion were placed in the middle of a tube 1. Openings at both ends of the tube 1 were covered with gauze, and the tube was placed in a refrigerator at 4° C. for 3 min to reduce mosquito activities. Then the tube 1 was connected to tubes 2 and 3. The whole device was placed in a dark incubator at 26° C., and the selection of mosquitoes was recorded after 10 h. A Response index was calculated [the Response index=the number of mosquitoes selecting Galleria mellonella muscardine cadavers−the number of mosquitoes selecting freeze-killed Galleria mellonella larvae)/the total number of mosquitoes].
as §1, with “insects. In the Galleria mellonella attractive device, the muscardine cadaver was replaced by cotton balls with about 2 cm diameter (containing 100 μl different concentrations solutions of longifolene or sativene), and a control was cotton balls containing 100 μl of n-hexane solvent.” for “insects.”
as §2

SMILES | concentration dependence of attraction on Drosophila larvae (Drosophila larvae) | attraction of Galleria mellonella larvae [1] | response of mosquitoes at 10^−9 g (Aedes albopictus adults; 10^−9 g, FIG. 2C) | content with the strongest attraction on mosquitoes (Aedes albopictus adults) | lowest level to which Drosophila larvae respond (Drosophila larvae; content gradients 10^−5 g to 10^−11 g on filter paper vs n-hexane control) | concentration dependence of attraction on mosquitoes (Aedes albopictus adults; content gradients 10^−5 g to 10^−9 g, FIG. 2D)
C=C1[C@H]2CC[C@@H]3[C@H]2C(C)(C)CCC[C@]13C [longifolene] | a higher concentration of the longifolene and sativene had a stronger attraction | could also attract | little response | 10^−6 g | – | –
C=C1C2CCC3C2C(C(C)C)CCC13C (stereo not drawn) [sativene] | a higher concentration of the sativene has a stronger attracting effect; also recorded: a higher concentration of the longifolene and sativene had a stronger attraction | has insect attracting properties; also recorded: could also attract | – | 10^−5 g | ≤ 10^−11 g | a higher concentration of the sativene has a stronger attracting effect; also recorded: a higher concentration of the sativene had a stronger attraction

— patent US20240251802A1, “USE OF SATIVENE, AND RECOMBINANT BIOCONTROL FUNGUS AND MUSCARDINE CADAVER AND USE THEREOF” (priority 2022, published 2024)
